Source: PubChem BioAssay AID743410 (Sanford-Burnham Center for Chemical Genomics, 2014)

Tested on: RS11846 B cell chemotaxis to 7a,25-OHC, calcein fluorescence
Assay: blockade of oxysterol-directed cell migration via EBI2 – chemotaxis, 7a,25-OHC, calcein fluorescence, dose response (AID 743410)

Question: For `O=C(/C=C/c1ccc(Br)cc1)N1CCN(Cc2ccc(Cl)cc2)CC1`, which IC50 is on record?
Answer: Its IC50 is 6.24 nM.
